In patent US8906921B2, “4-alkoxypyridazine derivatives as fast dissociating dopamine 2 receptor antagonists” (Janssen Pharmaceutica NV, priority 2007, dated 2014):
Structures can show the parent of a compound that is named as a salt.

Question: Which melting point does the source give for `COc1cc(Cl)nnc1NC1CCN(Cc2cc(F)cc(C(F)(F)F)c2)CC1` here?
Answer: The melting point was 121.5 °C.

Question: Which melting point does the source give for `COc1cc(Cl)nnc1NC1CCN(Cc2ccc(F)c(F)c2)CC1` here?
Answer: Its melting point is 130.5 °C.

Question: For `COc1cc(Cl)nnc1NC1CCN(Cc2cc(F)c(F)c(F)c2)CC1`, which melting point is on record?
Answer: Its melting point is 150.7 °C.

Question: For `COc1cc(C(F)(F)F)nnc1NC1CCN(Cc2cccc(C(F)(F)F)c2)CC1` (as salt: hydrochloride), which melting point is on record?
Answer: The melting point was 211.3 °C.
